In the CheMixHub ionic liquid set:

Test: xn = mol fraction of the nth substance listed
Conditions: 100 kPa

CCCC[n+]1ccc(C)cc1.[Br-] + CO/N=C(\C(=O)N[C@@H]1C(=O)N2C(C(=O)[O-])=C(CSc3nc(=O)c(=O)[n-]n3C)CS[C@H]12)c1csc(N)n1.[Na+].[Na+] + O
viscosity [mPa·s]
Conditions	288.15 K	293.15 K	298.15 K	303.15 K	308.15 K
x2 = 0, x1 = 0.0007903	1.165	1.024	0.907	0.813	0.734
x2 = 0, x1 = 0.001191	1.176	1.037	0.919	0.824	0.745
x2 = 0, x1 = 0.001595	1.195	1.044	0.926	0.833	0.75
x2 = 0.0008523, x1 = 0.0007896	1.293	1.134	0.998	0.892	0.805
x2 = 0.0008581, x1 = 0.00119	1.321	1.176	1.024	0.918	0.827
x2 = 0.001389, x1 = 0.0007891	1.39	1.219	1.077	0.965	0.863
x2 = 0.001401, x1 = 0.001593	1.423	1.241	1.103	0.989	0.884
x2 = 0.001946, x1 = 0.0007887	1.504	1.31	1.157	1.035	0.931
x2 = 0.001971, x1 = 0.001189	1.511	1.342	1.183	1.055	0.948
x2 = 0.001975, x1 = 0.001592	1.545	1.355	1.192	1.065	0.954
x2 = 0.002543, x1 = 0.0007882	1.632	1.427	1.256	1.12	1.007
x2 = 0.002544, x1 = 0.001591	1.673	1.464	1.295	1.152	1.031
x2 = 0.003109, x1 = 0.001187	1.806	1.567	1.379	1.224	1.096
x2 = 0.003138, x1 = 0.0007878	1.767	1.543	1.364	1.213	1.086
x2 = 0.003151, x1 = 0.00159	1.823	1.589	1.399	1.244	1.113
x2 = 0.003944, x1 = 0.001186	2.024	1.764	1.544	1.369	1.222
x2 = 0.003953, x1 = 0.0007871	1.993	1.729	1.519	1.351	1.208
x2 = 0.003986, x1 = 0.001589	2.106	1.787	1.577	1.395	1.245
x2 = 0.004811, x1 = 0.001588	2.346	2.022	1.772	1.562	1.389
x2 = 0.004834, x1 = 0.0007864	2.266	1.959	1.718	1.524	1.35
x2 = 0.004855, x1 = 0.001185	2.32	2.01	1.757	1.552	1.38
x2 = 0.005536, x1 = 0.0007859	2.52	2.173	1.904	1.68	1.492
x2 = 0.005537, x1 = 0.001184	2.56	2.232	1.937	1.706	1.514
x2 = 0.005566, x1 = 0.001586	2.63	2.267	1.983	1.738	1.544
